Test results from the METLIN SMRT retention time set (Domingo-Almenara et al. 2019).

Test: gradient 5% acetonitrile 3 min, to 50% in 2 min, to 85% in 15 min, held 3 min, 100 µL/min
Details: column: Zorbax Extend-C18 2.1 x 50 mm; eluents: water / acetonitrile, 0.1% formic acid
Procedure, shortened: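 Standards, all pure, were combined into mixtures of ~100 molecules and run at 100 μL/min on a Zorbax Extend-C18 column (2.1 × 50 mm, 1.8 μm) with water and acetonitrile, each containing 0.1% formic acid. A coupled quadrupole time-of-flight mass spectrometer operated in positive and negative ionization mode. Retention time values come from computationally picked adduct peaks, each inspected manually.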

Row | RP-LC retention time | Compound
1 | 828 s | CCCc1noc(-c2ccnc(-n3ncc(C(=O)NCC)c3C)c2)n1
2 | 774 s | Cc1ccccc1NC(=O)Cn1nc(N2CCOCC2)c2ccccc2c1=O
3 | 1300 s | O=C1COc2ccc(Cl)cc2N1Cc1nc(-c2cccc(-c3csc(C4CC4)n3)c2)no1
4 | 700 s | CCCCSc1cc(=O)[nH]c(N)n1
5 | 631 s | O=C(NCCN1CCOCC1)c1ccc2nc(Cc3ccccc3)oc2c1
6 | 1060 s | CC1CCN(C(=O)c2nnc(-c3ccc(S(=O)(=O)N4CCCCC4)cc3)o2)CC1
7 | 796 s | CC1CCCN(c2nc(=O)n(CC(=O)Nc3ccc4c(c3)OCO4)c3ccccc23)C1 (centres undefined)
8 | 763 s | COc1ccc(CCNC(=O)C2CN(S(C)(=O)=O)CC23CCCCC3)cc1OC (centres undefined)
9 | 787 s | CN(C)c1ccc(Nc2nc(-c3ccc(Br)cc3)cs2)cc1
10 | 724 s | CCN(CC)C(=O)c1ccc(-c2nc3cc(NS(=O)(=O)c4ccc(F)c(F)c4)ccc3n2C)cc1
11 | 561 s | Cc1noc(C)c1CNC(=O)c1ccc2nc[nH]c2c1
12 | 560 s | C/C=C/c1ccc(OCC(O)CN2CCN(C)CC2)c(OC)c1 (centres undefined)
13 | 678 s | Cc1cc2[nH]c(C(=O)Nc3cc(F)ccc3C)c(CN3CCOCC3)c2s1
14 | 998 s | Cc1cc2c(cc(C(=O)N3CCC(C(=O)NC4CCCC4)CC3)n2Cc2c(F)cccc2Cl)o1
15 | 1140 s | CC1(C)Cc2c(C#N)c(N3CCN(C(=O)c4ccc([N+](=O)[O-])cc4)CC3)nc(-c3ccccc3)c2CO1
16 | 801 s | O=C(Nc1ccc2c(c1)OCO2)C1CC(=O)N(CCc2c[nH]c3ccc(Cl)cc23)C1 (centres undefined)
17 | 830 s | CCn1c(C(=O)N2CCN(c3ncccn3)CC2)cc2cc(S(=O)(=O)N(C)C)ccc21
18 | 563 s | CN1C(=O)C2CCCCN2c2ccc(C(=O)NCc3ccc4c(c3)OCO4)cc21 (centres undefined)
19 | 1400 s | Clc1ccccc1CSc1nnc(-c2ccc(Br)cc2)o1
20 | 1050 s | CCOC(=O)c1sc(NC(=O)CC(C)C)nc1-c1ccccc1
21 | 638 s | CSc1ccc(CNC(=O)C2CCN(c3ccc(N4CCOCC4)nn3)CC2)cc1
22 | 746 s | CCCNC(=O)c1nc(Nc2ccc(F)cc2)c2ccccc2n1
23 | 1200 s | CCn1c(=O)oc2cc(-c3noc(-c4ccc(C)c(F)c4)n3)ccc21

Row | RP-LC retention time | Compound
24 | 550 s | CCN1CCC2(CC1)CC(c1nnc(C)o1)N(CCc1ccccc1)C2 (centres undefined)
25 | 554 s | COCCc1noc([C@@H]2CN(Cc3cccc4[nH]ccc34)C[C@H]2CO)n1
26 | 697 s | CC1CCN(c2ncnc3c2cnn3CC(=O)Nc2ccc(Cl)cc2)CC1
27 | 750 s | COc1ccc(OC)c(CNC(=O)Cc2cccn2-c2ccc(C)cc2)c1
28 | 1240 s | CCCn1cc(C(=O)NCCC(C)C)c(S(=O)(=O)N2CCN(c3ccccc3OCC)CC2)n1
29 | 743 s | O=C(Nc1ccc(OCc2nnc(-c3ccccc3)o2)cc1)c1cccnc1
30 | 704 s | O=C(NCCC1CCN(C(=O)Nc2ccccc2)CC1)c1ccoc1
31 | 1050 s | C=CCN1C(=O)COc2ccc(-c3nc(NC(=O)c4ccccc4C)sc3C)cc21
32 | 760 s | Cc1noc(C2CN(C(=O)Nc3cc(Cl)ccc3C)CC23CCOCC3)n1 (centres undefined)
33 | 596 s | CCc1cc(=O)n(CC(=O)Nc2ccc(F)cc2)c(N)n1
34 | 674 s | O=C1NCCOCCN(C(=O)c2nccc3ccccc23)[C@H]2CCC[C@@H]12
35 | 1030 s | Cc1ccc(S(=O)(=O)Cc2noc(-c3ccc(Br)cc3)n2)cc1
36 | 882 s | CCc1ccccc1NC(=O)Cn1c(=O)n(-c2cccc(C)c2)c(=O)c2c1cc(C)n2C
37 | 938 s | CC1CCC(NC(=O)C2CCCN(S(=O)(=O)c3c[nH]c(C(=O)N4CCCCCC4)c3)C2)CC1 (centres undefined)
38 | 574 s | O=C(NCCCOc1cccc2cccnc12)c1c(F)cccc1F
39 | 773 s | Cc1nc(-c2ccncc2)nc2c1CCC(=O)N2C1CCCC1
40 | 1050 s | Cc1cc(C)c(C)c(S(=O)(=O)NCC2(c3cccs3)CCOCC2)c1C
41 | 1020 s | Cc1ccc(-c2nnc(-c3nn(C)c4c3CN(S(=O)(=O)Cc3ccccc3Cl)CC4)o2)cc1
42 | 892 s | Cc1ccc(-c2cn3c(CC(=O)NCc4ccc(Cl)cc4)csc3n2)cc1C
43 | 578 s | Cn1c(N2CCCC(C(=O)N3CCN(c4ccccn4)CC3)C2)cc(=O)n(C)c1=O (centres undefined)
44 | 950 s | CCC(C)(C)C(=O)NC1CCN(C2=NS(=O)(=O)C(c3ccc(C)c(C)c3)=C2C)CC1
45 | 748 s | Cn1c(=O)c2c(ncn2CC(=O)N2CCC(CCOc3ccc(F)cc3)C2)n(C)c1=O (centres undefined)
46 | 711 s | COc1ccccc1CNC(=O)C1CC(=O)N(c2n[nH]c3cccc(F)c23)C1 (centres undefined)

Row | RP-LC retention time | Compound
47 | 590 s | O=C(c1cc(-c2ccncc2)n[nH]1)N1CCN(C(=O)c2ccc(Br)o2)CC1
48 | 839 s | CCCC(=O)Nc1ccc2nc(N3CCN(CC(=O)NCCOC)CC3)cc(C(=O)O)c2c1
49 | 734 s | O=C(Nc1cccc(-c2cn3cccnc3n2)c1)c1ccc(Br)cc1
50 | 725 s | O=C(NCCc1ccccc1)N1CCC(n2c(-c3ccoc3)nc3cccnc32)C1 (centres undefined)
51 | 772 s | Cc1coc2cc3oc(=O)c(CC(=O)N[C@H](Cc4c[nH]c5ccccc45)C(=O)O)c(C)c3cc12
52 | 571 s | CCN(CC)c1cc(C)nc2nc(CN3CCN(c4ccc(OC)cc4)CC3)nn12
53 | 710 s | Cc1ccc(NC(=O)N2CC(c3nc(C(C)C)nn3C)C2)cc1C
54 | 973 s | CSc1cccc(NC(=O)c2cn(C)nc2S(=O)(=O)N2CCSCC2)c1
55 | 792 s | O=C(NC1CC1)[C@@H]1C[C@H](Oc2ccccc2)CN1C(=O)CCc1c[nH]c2ccccc12
56 | 635 s | O=C(CN(C(=O)c1ccc(F)c(F)c1)C1CCCCC1)N1CCNCC1
57 | 635 s | COc1ccc(NC(=O)c2cnc(N3CCC4(CC3)OCCO4)nc2N)cc1
58 | 596 s | CCCS(=O)(=O)N1CCOc2ccc(CN3CCc4ccccc4C3)cc2C1
59 | 737 s | CC(C)NC(=O)c1cc(=O)[nH]c2c(Cl)cccc12
60 | 676 s | Nc1cc(C2CCN(C(=O)Nc3cccc(Cl)c3F)CC2)no1
61 | 616 s | CC(C)S(=O)(=O)c1ccc(Cc2nnc(NC(=O)C3=COCCO3)o2)cc1
62 | 702 s | COc1cccc(N2CCn3c2nc2c3c(=O)n(CC(=O)O)c(=O)n2C)c1
63 | 841 s | Cc1ccc(-c2nc(CN3CCCC3=O)no2)cc1C
64 | 867 s | COc1ccc(OC)c(CCNC(=O)c2c(N3CCCC3=O)c3cc(OC)ccc3n2C)c1
65 | 1110 s | CC(C)Oc1ccc(-c2noc(CN3N=NC4C(=O)N(c5ccc(F)c(F)c5)C(=O)C43)n2)cc1 (centres undefined)
66 | 548 s | COC(=O)c1c(-c2cccc(F)c2)noc1NCc1ccc(OC)cc1OC
67 | 817 s | COC(=O)c1ncn2c1C(=O)N(c1ccc(C(C)C)cc1)C(C)(C(=O)NC1CCCC1)C2 (centres undefined)
68 | 671 s | CC(=O)N1CCCSc2ccc(S(=O)(=O)N3CCC(CN4CCc5ccccc5C4)CC3)cc21
69 | 706 s | CNC(=O)c1cc2c(cn1)[nH]c1ccccc12

Row | RP-LC retention time | Compound
70 | 637 s | CNC(=O)c1ccc(-c2nc3cc(NS(=O)(=O)c4cc(F)ccc4F)ccc3n2C)cc1
71 | 626 s | C=CCNC(=O)c1ccc2nc(C)c(C)nc2c1
72 | 838 s | Cc1ccc(-n2c(N3CCCC(C(=O)NCCCOC(C)C)C3)nc3ccsc3c2=O)cc1 (centres undefined)
73 | 993 s | COc1ccc(-n2ccc(=O)c(-c3nc(-c4ccc(Cl)c(F)c4)no3)n2)cc1
74 | 906 s | COC(=O)C(C)Sc1ncnc2c1oc1ccccc12 (centres undefined)
75 | 984 s | CCCCn1cc(S(=O)(=O)NCc2ccc(C)cc2)c2cccnc21
76 | 696 s | CN(C)C(=O)c1cc2c(s1)CCC(C(=O)NC1CCCC1)C2 (centres undefined)
77 | 719 s | CCOc1ccccc1C(=O)Nc1c(-c2ccc(F)cc2)nc2ccccn12
78 | 858 s | O=C(O)Cc1sc(Nc2ccccc2)nc1-c1ccccc1
79 | 850 s | COC(=O)C1CN(c2ccc(OC)cc2)N=C1C(C)=O (centres undefined)
80 | 907 s | O=S(=O)(c1cccc(F)c1)N1CC(c2nc(CCOCC3CC3)no2)C1
81 | 971 s | CCc1ccc2c(c1)cc(S(=O)(=O)c1ccccc1)c(=O)n2CC(=O)NCc1ccc(F)cc1
82 | 661 s | O=C(CNC(=O)c1ccc(=O)[nH]c1)NCc1ccc(OCc2ccccc2)cc1
83 | 919 s | Cc1ccc(C)c(NC(=O)N(C)CCc2noc(COc3ccccc3F)n2)c1
84 | 736 s | CCC(C)C(NC(=O)Cc1cccc(F)c1)C(=O)Nc1nc2ccccc2[nH]1 (centres undefined)
85 | 798 s | Cc1cc(NC(=O)N(C)CC2CCOC2)ccc1Br (centres undefined)
86 | 693 s | CCC(CO)NCc1ccc(-c2cc(Cl)ccc2Cl)o1 (centres undefined)
87 | 731 s | Cc1ccc(NC(=O)C2CCc3nc(N4CCOCC4)ncc3C2)c(F)c1 (centres undefined)
88 | 805 s | CC(C)C(=O)Nc1nc2cc(NC(=O)C3CCN(S(=O)(=O)N4CCCC4)CC3)ccc2s1
89 | 556 s | O=C(C1CC(=O)N(c2ccc(F)cc2)C1)N1CCN(CCn2cccn2)CC1 (centres undefined)
